The text below walks through data of patent US20220388969A1, “SUBSTITUTED 3,4-DIHYDROQ[…] THE TREATMENT AND PROPHYLAXIS OF HEPATITIS B VIRUS INFECTION” (priority 2019, published 2022).

The test system of one experiment is HBsAg in HBV-infected primary human hepatocytes. Description: Cryopreserved primary human hepatocytes (PHH) HBV infection assay, extracellular HBsAg. Particulars: Hepatitis B virus, Hepatocyte, 216 h, read-out: HBsAg IC50. It counts as cell-based. How it is done:
This assay is used to confirm the anti-HBV effect of the compounds in HBV PHH infection assay. Cryopreserved PHH (BioreclamationlVT, Lot YJM) was thawed at 37° C. and gently transferred into pre-warmed InVitroGRO HT medium (BioreclamationIVT, Cat. S03317). The mixture was centrifuged at 70 relative centrifugal force (RCF) for 3 minutes at RT, and the supernatant was discarded. Pre-warmed InVitroGRO CP medium (BioreclamationlVT, Cat# S03316) was added to the cell pellet to gently re-suspend cells. The cells were seeded at the density of 5.8×10^4 cells per well to collagen I coated 96-well plate (Gibco, Cat. A1142803) with the InVitroGRO CP medium. All plates were incubated at 37° C. with 5% CO2 and 85% humidity.
At 20 hours after plating, the medium was changed to PHH culture medium (Dulbecco's Modified Eagle Medium (DMEM)/F12 (1:1) (Gibco, Cat. 11320-033), 10% fetal bovine serum (Gibco Cat. 10099141), 100 U/mL penicillin, 100 μg/mL streptomycin (Gibco, Cat. 151401-122), 5 ng/mL human epidermal growth factor (Invitrogen Cat. PHG0311L), 20 ng/mL dexamethasone (Sigma, Cat. D4902) and 250 ng/mL human recombinant insulin (Gibco, Cat. 12585-014)). And the cells were incubated at 37° C. with 5% CO2 and 85% humidity for 4 hours. The medium was then changed to pre-warmed PHH culture medium containing 4% polyethylene glycol (PEG) MW8000 (Sigma, Cat. P1458-50ML) and 1% DMSO (Sigma, Cat. D2650). 5.8×10^6 genomic equivalents of HBV were added into the medium.
At 24 hours post-infection, the cells were gently washed with PBS and refreshed with PHH culture medium supplemented with 1% DMSO, and 0.25 mg/mL Matrix gel (Corning, Cat. 356237) at 200 μL per well. All plates were immediately placed in at 37° C. CO2 incubator.
24 hours later, serial dilutions of compounds made with DMSO were further diluted with the same culture medium (PHH culture medium supplemented with 1% DMSO and 0.25 mg/mL Matrix gel as described above) before they were added to the cells to reach desired final compound concentrations and 1% DMSO concentration. The medium containing the compounds were refreshed every three days.
At 9 days post-compound treatment, extracellular HBsAg level were measured with Chemiluminescence Immuno Assay (CLIA) kit (Autobio, HBsAg Quantitative CLIA).
HBsAg IC50 values were derived from the dose-response curve using 4 parameter logistic curve fit method. The compounds of formula (I) have HBsAg IC50<20 μM, particularly <1 μM.
A word on the IC50: it is the point on the concentration scale where inhibition reaches its midpoint. As to `O=C(O)C1NC(c2cccc(Br)c2)=Nc2cc(C(F)(F)F)ccc21` (centres unmarked) [Example 6, 2-(3-bromophenyl)-7-(trifluoromethyl)-3,4-dihydroquinazoline-4-carboxylic Acid], the half-maximal inhibitory concentration (IC50) is 7180 nM.

In a further experiment the test system is HBeAg level in HepDES19 cells (surrogate marker for HBV cccDNA). Kind of experiment: Engineered HepDES19 primary screen assay (HBeAg as surrogate marker for cccDNA). The format is cell-based. Particulars: Hepatitis B virus, 120 h; HepDES19 cells, 5 days incubation with compound, HBeAg ELISA; read-out: IC50 (HBeAg level, HepDES19 primary screen assay). An excerpt:
The assay was employed to screen for novel cccDNA inhibitors. HepDES19 is a cccDNA-producing cell line. In this cell line, HBeAg in the cell culture supernatant as surrogate marker, as HBeAg production depends on cccDNA level and activity. HepDES19 is an engineered cell line which contains a 1.1 unit length HBV genome, and pgRNA transcription from the transgene is controlled by Tetracycline (Tet). In the absence of Tet, pgRNA transcription will be induced, but HBV e antigen (HBeAg) could not be produced from this pgRNA due to very short leader sequence before the HBeAg start codon and the start codon is disrupted. Only after cccDNA is formed, the missing leader sequence and start codon mutation would be restored from the 3′-terminal redundancy of pgRNA, and then HBeAg could be synthesized. Therefore, HBeAg could be used as a surrogate marker for cccDNA (Zhou, T. et al., Antiviral Res.(2006), 72(2), 116-124; Guo, H. et al., J. Virol. (2007), 81(22), 12472-12484).
HepDES19 cells were seeded at 2×10^6 cells per T150 flask and cultured with the culture medium (Dulbecco's Modified Eagle Medium: Nutrient Mixture F-12 [DMEM-F12, Gibco Cat. 11320-82], 10% Fetal Bovine Serum [FBS, Clontech Cat. 631101], 0.1 mM Non-Essential Amino Acids Solution [NEAA, Gibco Cat. 11140-050], 50 μg/mL Penicillin-Streptomycin [PS, Invitrogen Cat. 15140-163], 500 μg/mL Geneticin [G418, Invitrogen Cat. 10131-027]) containing 3 μg/mL Tet (Sigma, Cat. 87128) for 5 days. Cells were then seeded at 4×10^6 cells per T150 in the same culture medium as described above in the absence of Tet for 8 days. Cells were then harvested and frozen at density of 2×10^6 cells per mL. For compound testing, the frozen cells were thawed and seeded into 96-well plates at a density of 6 ×10^4 cells per well. At 24hours after seeding, half log serial dilutions of compounds made with Dimethyl sulfoxide (DMSO, Sigma, Cat. D2650) were further diluted with the same culture medium as described above before they were added to the cells to reach desired final compound concentrations and 1% DMSO concentration. Plates were then incubated at 37° C. for another 5 days before measurement of HBeAg level and cell viability. Intracellular HBeAg level were measured with enzyme-linked immunosorbent assay (ELISA) kit (Shanghai Kehua Diagnostic Medical Products Co., Ltd). Cell viability was assessed using Cell Counting Kit-8 (DonJindo, Cat. CK04-20). IC50 values were derived from the dose-response curve using 4 parameter logistic curve fit method.
The compounds of the present invention were tested for their capacity to inhibit extracellular HBeAg level as described herein.
For orientation: An ELISA detects its analyte on a solid surface through an enzyme-linked reagent.
`O=C(O)C1NC(c2cccc(Br)c2)=Nc2cc(C(F)(F)F)ccc21` (centres unmarked) [Example 6, 2-(3-bromophenyl)-7-(trifluoromethyl)-3,4-dihydroquinazoline-4-carboxylic Acid]: the IC50 came to 3430 nM.

Regarding `CC1NC(c2ccc(OCCO[C@H]3C[C@@H](C(=O)O)C3)cc2)=Nc2c(Cl)cccc21` (stereo partly drawn) [Example 21, cis-3-[2-[4-(8-chloro-4-methyl-3,4-dihydroquinazolin-2-yl)phenoxy]ethoxy]cyclobutanecarboxylic Acid], the IC50 is 1030 nM.

As to `COc1ccc2c(c1)CCN(C1=Nc3c(Cl)cccc3C(C)N1)C2=O` (centres unmarked) [Example 29, 2-(8-chloro-4-methyl-3,4-dihydroquinazolin-2-yl)-6-methoxy-3,4-dihydroisoquinolin-1-one], the 50% inhibitory concentration (IC50) came to 27 nM.

Turning to `CC1(C(=O)O)NC(c2ccc(Br)cc2)=Nc2c(Cl)cccc21` (centres unmarked) [Example 11, 2-(4-bromophenyl)-8-chloro-4-methyl-3H-quinazoline-4-carboxylic Acid], the IC50 was found to be 130 nM.

`CC1(C)NC(c2ccc(Br)cc2)=Nc2c(Cl)cccc21` [Example 34, 2-(4-bromophenyl)-8-chloro-4,4-dimethyl-3H-quinazoline hydrofluoride]: the IC50 is 5780 nM.

In the case of `COc1ccc(C2=Nc3c(Cl)cccc3C(C(N)=O)N2)cc1` (centres unmarked) [Example 14, 8-chloro-2-(4-methoxyphenyl)-3,4-dihydroquinazoline-4-carboxamide], the IC50 is 2470 nM.

For `CC1c2cccc(Cl)c2N=C(c2ccc(OCCOCC(=O)O)cc2)N1C` (centres unmarked) [Example 26, 2-[2-[4-(8-chloro-3,4-dimethyl-4H-quinazolin-2-yl)phenoxy]ethoxy]acetic acid], the 50% inhibitory concentration (IC50) stood at 5540 nM.

With `COc1ccc(C2=Nc3c(Cl)cccc3C(C(=O)O)N2)cn1` (centres unmarked) [Example 8, 8-chloro-2-(6-methoxy-3-pyridyl)-3,4-dihydroquinazoline-4-carboxylic Acid], the IC50 came out at 9160 nM.

Consider `O=C(O)C1NC(c2ccc(N3CCCC3)nc2)=Nc2c(Cl)cccc21` (centres unmarked) [Example 10, 8-chloro-2-(6-pyrrolidin-1-yl-3-pyridyl)-3,4-dihydroquinazoline-4-carboxylic Acid], for which the half-maximal inhibitory concentration (IC50) was found to be 50 nM.

`CC1NC(c2cccc(Br)c2)=Nc2cc(C(F)(F)F)ccc21` (centres unmarked) [Example 33, 2-(3-bromophenyl)-4-methyl-7-(trifluoromethyl)-3,4-dihydroquinazoline]: the IC50 was 860 nM.

Take `CC1NC(c2ccc(Br)cc2OCCOC2CC(C(=O)O)C2)=Nc2c(Cl)cccc21` (centres unmarked) [Example 37, 3-[2-[5-bromo-2-(8-chloro-4-methyl-3,4-dihydroquinazolin-2-yl)phenoxy]ethoxy]cyclobutanecarboxylic Acid]: the 50% inhibitory concentration (IC50) turned out to be 1970 nM.

Regarding `CC1NC(c2nc(Br)cs2)=Nc2c(Cl)cccc21` (centres unmarked) [Example 31, 4-bromo-2-(8-chloro-4-methyl-3,4-dihydroquinazolin-2-yl)thiazole], the IC50 is 2030 nM.

Take `OCCOc1ccc(C2=Nc3c(Cl)cccc3CN2)cc1` [Example 27, 2-[4-(8-chloro-3,4-dihydroquinazolin-2-yl)phenoxy]ethanol]: the IC50 is 11600 nM.

Turning to `CCOc1ccc(C2=Nc3c(Cl)cccc3C(C(=O)O)N2)cn1` (centres unmarked) [Example 9, 8-chloro-2-(6-ethoxy-3-pyridyl)-3,4-dihydroquinazoline-4-carboxylic Acid], the half-maximal inhibitory concentration (IC50) was determined as 450 nM.

Consider `CC1NC(c2ccc(OCCOCC(=O)O)cc2)=Nc2cc(C(F)(F)F)ccc21` (centres unmarked) [Example 20, 2-[2-[4-[4-methyl-7-(trifluoromethyl)-3,4-dihydroquinazolin-2-yl]phenoxy]ethoxy]acetic Acid], for which the IC50 was 2010 nM.

Take `O=C(C1NC(c2ccc(Br)cc2)=Nc2cc(C(F)(F)F)ccc21)N1CCOCC1` (centres unmarked) [Example 17, [2-(4-bromophenyl)-7-(trifluoromethyl)-3,4-dihydroquinazolin-4-yl]-morpholino-methanone]: the IC50 came out at 1650 nM.

Take `CC1c2ccc(C(F)(F)F)cc2N=C(c2cccc(Br)c2)N1CCO` (centres unmarked) [Example 25, 2-[2-(3-bromophenyl)-4-methyl-7-(trifluoromethyl)-4H-quinazolin-3-yl]ethanol]: the concentration for half-maximal inhibition (IC50) came to 9550 nM.

As to `CC1NC(c2ccc(OCCO)cc2)=Nc2c(Cl)cccc21` (centres unmarked) [Example 28, 2-[4-(8-chloro-4-methyl-3,4-dihydroquinazolin-2-yl)phenoxy]ethanol], the IC50 stood at 4770 nM.

For `CC1NC(n2cnc(Br)c2)=Nc2cc(C(F)(F)F)ccc21` (centres unmarked) [Example 30, 2-(4-bromoimidazol-1-yl)-4-methyl-7-(trifluoromethyl)-3,4-dihydroquinazoline], the concentration for half-maximal inhibition (IC50) was determined as 778 nM.

For `CC1c2ccc(C(F)(F)F)cc2N=C(c2cccc(Br)c2)N1C` (centres unmarked) [Example 24, 2-(3-bromophenyl)-3,4-dimethyl-7-(trifluoromethyl)-4H-quinazoline], the 50% inhibitory concentration (IC50) worked out at 2100 nM.

Turning to `CC1NC(c2ccc(OCCOCC(=O)O)cc2)=Nc2c(Cl)cccc21` (centres unmarked) [Example 23, 2-[2-[4-(8-chloro-4-methyl-3,4-dihydroquinazolin-2-yl)phenoxy]ethoxy]acetic Acid], the IC50 is 1780 nM.

For `Clc1cccc2c1N=C(c1ccc(Br)cc1)NC2C1CC1` (centres unmarked) [Example 35, 2-(4-bromophenyl)-8-chloro-4-cyclopropyl-3,4-dihydroquinazoline], the IC50 was 410 nM.

For `OCC1NC(c2ccc(Br)cc2)=Nc2c(Cl)cccc21` (centres unmarked) [Example 38, [2-(4-bromophenyl)-8-chloro-3,4-dihydroquinazolin-4-yl]methanol], the IC50 was found to be 5320 nM.

In the case of `NC(=O)C1NC(c2cccc(Br)c2)=Nc2cc(C(F)(F)F)ccc21` (centres unmarked) [Example 15, 2-(3-bromophenyl)-7-(trifluoromethyl)-3,4-dihydroquinazoline-4-carboxamide], the IC50 is 260 nM.

The experiment is the same for the next values; noted with them: Hepatitis B virus, HepDES19, 120 h, read-out: IC50 (HBeAg level, HepDES19 primary screen assay).
For the compound `O=C(NCCCl)C1NC(c2ccc(Br)cc2)=Nc2c(Cl)cccc21` (centres unmarked) [Example 18, 2-(4-bromophenyl)-8-chloro-N-(2-chloroethyl)-3,4-dihydroquinazoline-4-carboxamide], the half-maximal inhibitory concentration (IC50) came to 2590 nM.
